The source made the active and inactive calls. The calls are words filed in the database; no cut-off is given here.
Columns and labels:
[1] = target: MAP kinase-activated protein kinase 2 (Homo sapiens) (UniProt P49137); details: Compound concentration 1000.0 nM
[2] = target: Alpha-2A adrenergic receptor (Homo sapiens) (UniProt P08913); details: Compound concentration 10.0 uM
[3] = target: T1, Tyrosine-protein kinase ITK/TSK (Homo sapiens) (UniProt Q08881); details: Compound concentration 1000.0 nM
T1 sequence (whole entry): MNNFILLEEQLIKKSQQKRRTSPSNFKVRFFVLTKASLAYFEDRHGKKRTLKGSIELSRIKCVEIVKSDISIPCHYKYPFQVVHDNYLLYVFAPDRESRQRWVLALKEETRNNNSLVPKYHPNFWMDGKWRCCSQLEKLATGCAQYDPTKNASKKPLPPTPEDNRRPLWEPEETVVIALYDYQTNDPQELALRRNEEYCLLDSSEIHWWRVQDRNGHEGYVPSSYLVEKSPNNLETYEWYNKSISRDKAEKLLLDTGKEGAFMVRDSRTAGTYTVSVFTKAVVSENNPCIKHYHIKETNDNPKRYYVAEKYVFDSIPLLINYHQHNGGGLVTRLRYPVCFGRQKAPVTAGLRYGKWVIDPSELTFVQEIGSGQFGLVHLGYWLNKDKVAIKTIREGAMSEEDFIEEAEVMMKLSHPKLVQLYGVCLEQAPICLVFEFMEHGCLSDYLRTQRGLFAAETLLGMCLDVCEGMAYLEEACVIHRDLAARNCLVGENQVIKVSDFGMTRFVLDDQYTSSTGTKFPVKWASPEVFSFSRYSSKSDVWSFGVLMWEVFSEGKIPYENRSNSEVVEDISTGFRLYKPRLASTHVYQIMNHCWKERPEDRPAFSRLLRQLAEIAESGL

[4] = system: Proto-oncogene tyrosine-protein kinase receptor Ret (Homo sapiens), P07949 [V804L]; details: Compound concentration 1000.0 nM
[5] = target: Fibroblast growth factor receptor 4 (Homo sapiens) (UniProt P22455); details: Compound concentration 1000.0 nM
[6] = target: T2, Beta-adrenergic receptor kinase 1 (Homo sapiens) (UniProt P25098); details: Compound concentration 1000.0 nM
T2 sequence (whole entry): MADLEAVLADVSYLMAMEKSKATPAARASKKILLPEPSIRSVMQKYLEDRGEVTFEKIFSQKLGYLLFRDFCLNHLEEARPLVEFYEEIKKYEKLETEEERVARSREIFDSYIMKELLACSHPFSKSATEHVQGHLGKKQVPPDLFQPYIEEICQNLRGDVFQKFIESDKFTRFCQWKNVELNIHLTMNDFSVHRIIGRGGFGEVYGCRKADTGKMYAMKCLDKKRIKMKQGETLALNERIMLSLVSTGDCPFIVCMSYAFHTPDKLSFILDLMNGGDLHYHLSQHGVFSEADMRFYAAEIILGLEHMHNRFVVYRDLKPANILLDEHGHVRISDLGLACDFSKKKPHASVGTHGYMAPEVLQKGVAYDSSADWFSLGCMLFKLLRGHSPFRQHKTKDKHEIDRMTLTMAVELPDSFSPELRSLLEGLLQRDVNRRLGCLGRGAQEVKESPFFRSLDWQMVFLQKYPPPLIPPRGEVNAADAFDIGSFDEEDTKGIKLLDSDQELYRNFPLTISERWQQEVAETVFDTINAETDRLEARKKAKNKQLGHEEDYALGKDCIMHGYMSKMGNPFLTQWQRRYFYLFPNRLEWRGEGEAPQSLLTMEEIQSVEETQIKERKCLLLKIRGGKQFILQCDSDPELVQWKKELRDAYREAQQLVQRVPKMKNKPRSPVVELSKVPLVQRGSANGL

[7] = target: T3, NUAK family SNF1-like kinase 1 (Homo sapiens) (UniProt O60285); details: Compound concentration 1000.0 nM
T3 sequence (whole entry): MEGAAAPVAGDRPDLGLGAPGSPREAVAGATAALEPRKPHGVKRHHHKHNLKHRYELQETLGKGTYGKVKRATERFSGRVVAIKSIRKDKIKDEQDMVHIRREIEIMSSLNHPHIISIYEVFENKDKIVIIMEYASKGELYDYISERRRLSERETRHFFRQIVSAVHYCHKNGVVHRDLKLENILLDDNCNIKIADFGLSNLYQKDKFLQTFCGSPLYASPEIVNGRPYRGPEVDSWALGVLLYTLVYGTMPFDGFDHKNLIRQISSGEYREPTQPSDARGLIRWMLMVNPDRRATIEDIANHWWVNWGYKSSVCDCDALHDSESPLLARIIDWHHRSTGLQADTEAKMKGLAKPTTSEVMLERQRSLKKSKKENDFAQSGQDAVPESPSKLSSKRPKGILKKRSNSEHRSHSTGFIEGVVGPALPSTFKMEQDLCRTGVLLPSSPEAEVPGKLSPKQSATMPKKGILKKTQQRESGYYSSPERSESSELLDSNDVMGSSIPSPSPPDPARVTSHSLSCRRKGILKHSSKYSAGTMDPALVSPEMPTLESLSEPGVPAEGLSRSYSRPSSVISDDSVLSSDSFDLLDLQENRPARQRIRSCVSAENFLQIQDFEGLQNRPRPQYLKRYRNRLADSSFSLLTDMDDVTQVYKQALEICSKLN

[8] = target: 5'-AMP-activated protein kinase catalytic subunit alpha-1 (Homo sapiens, UniProt Q13131); experiment: Biochemical PRKAA1 assay with 10 µM ATP (Bayer in house)
[9] = system: Phosphatidylinositol 4,5-bisphosphate 3-kinase catalytic subunit alpha isoform (Homo sapiens), P42336 [E542K]; details: Compound concentration 1000.0 nM
[10] = target: Phosphatidylinositol 4,5-bisphosphate 3-kinase catalytic subunit gamma isoform (Homo sapiens) (UniProt P48736); details: Compound concentration 1000.0 nM
[11] = system: Mast/stem cell growth factor receptor Kit (Homo sapiens), P10721 [V559D]; details: Compound concentration 1000.0 nM
[12] = target: Alpha-2C adrenergic receptor (Homo sapiens) (UniProt P18825); details: Compound concentration 10.0 uM
[13] = target: Mitogen-activated protein kinase kinase kinase 11 (Homo sapiens) (UniProt Q16584); details: Compound concentration 1000.0 nM
[14] = target: Glycogen synthase kinase-3 alpha (Homo sapiens) (UniProt P49840); details: Compound concentration 1000.0 nM
[15] = target: Protein kinase C iota type (Homo sapiens) (UniProt P41743); details: Compound concentration 1000.0 nM
[16] = target: Macrophage colony-stimulating factor 1 receptor (Homo sapiens) (UniProt P07333); details: Compound concentration 1000.0 nM
[17] = system: Mast/stem cell growth factor receptor Kit (Homo sapiens), P10721 [D816V]; details: Compound concentration 1000.0 nM
[18] = target: Alpha-1A adrenergic receptor (Homo sapiens) (UniProt P35348); details: Compound concentration 10.0 uM
Alpha-1A adrenergic receptor (Homo sapiens), sequence (P35348 whole entry): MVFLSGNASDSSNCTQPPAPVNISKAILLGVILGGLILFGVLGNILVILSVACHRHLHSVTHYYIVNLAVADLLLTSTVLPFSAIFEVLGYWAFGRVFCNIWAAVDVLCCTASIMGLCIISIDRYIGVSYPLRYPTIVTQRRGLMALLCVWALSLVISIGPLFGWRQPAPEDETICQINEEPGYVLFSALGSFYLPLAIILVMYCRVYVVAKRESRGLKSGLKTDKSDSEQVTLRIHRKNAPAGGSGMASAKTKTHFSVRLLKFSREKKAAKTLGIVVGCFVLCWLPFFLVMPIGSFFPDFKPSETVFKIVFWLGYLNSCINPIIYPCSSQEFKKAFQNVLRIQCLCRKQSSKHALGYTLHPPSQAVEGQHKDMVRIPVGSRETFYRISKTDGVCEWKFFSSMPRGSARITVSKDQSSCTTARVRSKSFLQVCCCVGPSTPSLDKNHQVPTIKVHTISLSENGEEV

MAP kinase-activated protein kinase 2 (Homo sapiens), sequence (P49137 whole entry, looked up): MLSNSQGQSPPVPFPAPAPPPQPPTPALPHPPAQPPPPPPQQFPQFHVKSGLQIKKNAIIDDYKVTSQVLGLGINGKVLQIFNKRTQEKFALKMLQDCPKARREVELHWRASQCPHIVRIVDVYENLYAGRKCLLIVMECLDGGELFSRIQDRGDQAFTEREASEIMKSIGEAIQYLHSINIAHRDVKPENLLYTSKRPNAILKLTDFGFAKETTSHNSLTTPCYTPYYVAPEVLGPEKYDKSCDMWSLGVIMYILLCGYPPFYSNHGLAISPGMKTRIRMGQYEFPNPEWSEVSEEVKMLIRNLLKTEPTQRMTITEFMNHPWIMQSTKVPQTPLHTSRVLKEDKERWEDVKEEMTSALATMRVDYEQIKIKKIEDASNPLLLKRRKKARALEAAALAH
Phosphatidylinositol 4,5-bisphosphate 3-kinase catalytic subunit alpha isoform (Homo sapiens), P42336 [E542K], sequence (P42336 whole entry E542K, canonical isoform): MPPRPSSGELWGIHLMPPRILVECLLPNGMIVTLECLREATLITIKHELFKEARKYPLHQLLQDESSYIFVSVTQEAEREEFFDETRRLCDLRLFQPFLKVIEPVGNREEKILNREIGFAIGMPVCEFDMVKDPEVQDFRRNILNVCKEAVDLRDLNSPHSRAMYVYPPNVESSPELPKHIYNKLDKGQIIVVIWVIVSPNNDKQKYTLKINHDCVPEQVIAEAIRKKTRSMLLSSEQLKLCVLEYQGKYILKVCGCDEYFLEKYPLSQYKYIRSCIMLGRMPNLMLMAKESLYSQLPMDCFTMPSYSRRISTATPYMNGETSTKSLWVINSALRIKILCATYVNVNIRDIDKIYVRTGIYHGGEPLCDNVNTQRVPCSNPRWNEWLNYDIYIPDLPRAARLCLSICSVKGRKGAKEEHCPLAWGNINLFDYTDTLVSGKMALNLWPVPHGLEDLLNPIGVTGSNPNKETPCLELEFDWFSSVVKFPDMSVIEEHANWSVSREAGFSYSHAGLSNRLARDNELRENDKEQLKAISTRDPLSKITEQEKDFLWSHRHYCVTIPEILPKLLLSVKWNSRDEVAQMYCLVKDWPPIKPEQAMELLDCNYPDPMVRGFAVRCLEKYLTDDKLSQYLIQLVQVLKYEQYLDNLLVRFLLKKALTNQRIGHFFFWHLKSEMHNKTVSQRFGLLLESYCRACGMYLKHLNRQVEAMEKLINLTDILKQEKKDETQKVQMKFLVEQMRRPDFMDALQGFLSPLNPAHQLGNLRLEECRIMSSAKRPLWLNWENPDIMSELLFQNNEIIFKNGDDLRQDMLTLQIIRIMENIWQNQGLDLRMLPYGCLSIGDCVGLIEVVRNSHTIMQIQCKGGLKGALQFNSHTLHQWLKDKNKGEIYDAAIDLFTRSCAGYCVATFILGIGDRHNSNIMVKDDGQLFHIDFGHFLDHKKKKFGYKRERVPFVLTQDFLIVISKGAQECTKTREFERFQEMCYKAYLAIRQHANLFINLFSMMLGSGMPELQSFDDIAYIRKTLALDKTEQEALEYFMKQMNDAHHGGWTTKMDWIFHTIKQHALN
5'-AMP-activated protein kinase catalytic subunit alpha-1, sequence (Q13131 whole entry, canonical isoform): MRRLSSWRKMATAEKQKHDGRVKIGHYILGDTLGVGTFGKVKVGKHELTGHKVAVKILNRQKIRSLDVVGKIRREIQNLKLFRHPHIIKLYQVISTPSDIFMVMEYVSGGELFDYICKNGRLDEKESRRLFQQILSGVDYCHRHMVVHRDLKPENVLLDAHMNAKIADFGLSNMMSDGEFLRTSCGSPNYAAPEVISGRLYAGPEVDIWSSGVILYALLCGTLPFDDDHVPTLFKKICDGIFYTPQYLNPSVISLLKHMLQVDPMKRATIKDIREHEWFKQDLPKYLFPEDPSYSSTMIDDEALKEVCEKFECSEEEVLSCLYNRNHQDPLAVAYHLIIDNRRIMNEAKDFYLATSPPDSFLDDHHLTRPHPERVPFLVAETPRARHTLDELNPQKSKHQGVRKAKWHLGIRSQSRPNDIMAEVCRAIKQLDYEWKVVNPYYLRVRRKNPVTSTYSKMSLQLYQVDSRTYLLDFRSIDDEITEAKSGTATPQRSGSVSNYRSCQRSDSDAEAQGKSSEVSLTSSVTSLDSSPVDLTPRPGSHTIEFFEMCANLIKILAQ
Macrophage colony-stimulating factor 1 receptor (Homo sapiens), sequence (P07333 whole entry): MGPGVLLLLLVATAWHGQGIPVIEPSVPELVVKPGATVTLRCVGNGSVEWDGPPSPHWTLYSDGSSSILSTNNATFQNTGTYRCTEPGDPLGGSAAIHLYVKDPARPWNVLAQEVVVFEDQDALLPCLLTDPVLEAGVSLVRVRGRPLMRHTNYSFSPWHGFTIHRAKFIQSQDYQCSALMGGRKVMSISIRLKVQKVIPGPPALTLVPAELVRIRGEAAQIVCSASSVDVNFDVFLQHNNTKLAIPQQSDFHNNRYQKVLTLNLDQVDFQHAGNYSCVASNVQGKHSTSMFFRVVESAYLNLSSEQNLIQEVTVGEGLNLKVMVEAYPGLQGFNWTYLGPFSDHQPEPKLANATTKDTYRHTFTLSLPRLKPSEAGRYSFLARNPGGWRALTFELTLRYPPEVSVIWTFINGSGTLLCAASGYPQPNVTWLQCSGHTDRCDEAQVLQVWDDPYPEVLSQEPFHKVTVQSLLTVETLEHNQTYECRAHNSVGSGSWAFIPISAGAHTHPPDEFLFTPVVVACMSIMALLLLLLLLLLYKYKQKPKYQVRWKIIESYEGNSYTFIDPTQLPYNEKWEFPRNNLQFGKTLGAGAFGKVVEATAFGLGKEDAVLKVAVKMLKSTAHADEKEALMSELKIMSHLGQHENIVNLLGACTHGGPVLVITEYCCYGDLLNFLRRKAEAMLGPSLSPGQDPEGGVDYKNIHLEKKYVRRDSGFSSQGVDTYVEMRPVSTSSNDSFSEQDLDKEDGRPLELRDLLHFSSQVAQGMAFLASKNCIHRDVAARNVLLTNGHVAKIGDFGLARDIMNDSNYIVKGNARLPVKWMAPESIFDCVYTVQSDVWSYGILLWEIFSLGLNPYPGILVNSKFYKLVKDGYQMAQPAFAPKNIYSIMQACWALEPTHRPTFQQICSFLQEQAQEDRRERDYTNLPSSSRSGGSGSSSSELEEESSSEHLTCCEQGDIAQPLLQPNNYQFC
Alpha-2A adrenergic receptor (Homo sapiens), sequence (P08913 whole entry): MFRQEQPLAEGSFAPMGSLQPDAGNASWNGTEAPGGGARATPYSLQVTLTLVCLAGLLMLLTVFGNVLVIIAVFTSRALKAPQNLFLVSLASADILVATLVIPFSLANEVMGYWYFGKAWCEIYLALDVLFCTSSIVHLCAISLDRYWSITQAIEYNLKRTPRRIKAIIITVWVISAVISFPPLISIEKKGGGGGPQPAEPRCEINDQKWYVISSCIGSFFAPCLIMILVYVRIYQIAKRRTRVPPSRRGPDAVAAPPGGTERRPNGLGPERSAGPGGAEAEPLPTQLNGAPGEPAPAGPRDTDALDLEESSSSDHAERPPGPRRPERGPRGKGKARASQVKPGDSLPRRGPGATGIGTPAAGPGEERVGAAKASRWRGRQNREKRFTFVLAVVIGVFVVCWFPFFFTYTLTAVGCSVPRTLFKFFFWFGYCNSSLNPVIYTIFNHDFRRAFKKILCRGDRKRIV
Mast/stem cell growth factor receptor Kit (Homo sapiens), P10721 [D816V], sequence (P10721 whole entry D816V): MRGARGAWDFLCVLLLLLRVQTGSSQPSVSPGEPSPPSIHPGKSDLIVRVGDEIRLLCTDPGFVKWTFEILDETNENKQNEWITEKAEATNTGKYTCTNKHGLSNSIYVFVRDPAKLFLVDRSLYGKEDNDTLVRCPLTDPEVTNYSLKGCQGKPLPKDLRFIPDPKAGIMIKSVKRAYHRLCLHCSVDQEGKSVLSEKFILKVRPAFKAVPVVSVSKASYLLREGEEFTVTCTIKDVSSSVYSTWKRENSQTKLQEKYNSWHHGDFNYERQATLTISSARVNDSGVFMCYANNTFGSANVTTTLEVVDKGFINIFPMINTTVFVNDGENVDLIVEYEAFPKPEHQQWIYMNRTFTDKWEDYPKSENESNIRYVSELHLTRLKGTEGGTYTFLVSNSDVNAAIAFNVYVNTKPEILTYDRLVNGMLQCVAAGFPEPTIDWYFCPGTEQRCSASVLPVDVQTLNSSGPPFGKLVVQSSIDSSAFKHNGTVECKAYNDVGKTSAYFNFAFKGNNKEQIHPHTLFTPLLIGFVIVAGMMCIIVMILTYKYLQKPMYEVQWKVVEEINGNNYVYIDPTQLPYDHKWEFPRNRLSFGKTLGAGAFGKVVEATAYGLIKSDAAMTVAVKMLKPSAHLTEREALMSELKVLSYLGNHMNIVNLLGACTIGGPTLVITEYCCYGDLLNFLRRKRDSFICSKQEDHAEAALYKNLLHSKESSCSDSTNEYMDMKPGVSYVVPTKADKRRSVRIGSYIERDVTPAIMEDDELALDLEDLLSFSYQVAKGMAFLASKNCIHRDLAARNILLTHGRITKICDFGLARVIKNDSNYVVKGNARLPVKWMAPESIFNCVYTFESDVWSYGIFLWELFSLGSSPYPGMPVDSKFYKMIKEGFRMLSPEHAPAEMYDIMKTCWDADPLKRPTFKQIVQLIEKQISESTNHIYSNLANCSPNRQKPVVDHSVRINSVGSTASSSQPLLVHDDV
Mast/stem cell growth factor receptor Kit (Homo sapiens), P10721 [V559D], sequence (P10721 whole entry V559D): as the sequence (P10721 whole entry D816V) above, with V559D, V816D counted along it

Row | Structure (SMILES) | residual activity [1] [%] | inhibition [2] [%] | residual activity [3] [%] | residual activity [4] [%] | residual activity [5] [%] | residual activity [6] [%] | residual activity [7] [%] | IC50 [8] | residual activity [9] [%] | residual activity [10] [%] | residual activity [11] [%] | inhibition [12] [%] | residual activity [13] [%] | residual activity [14] [%] | residual activity [15] [%] | residual activity [16] [%] | residual activity [17] [%] | inhibition [18] [%]
1 | CC1=C(C#N)C(c2ccc3c(c2)c(NC(=O)c2ccccc2C)nn3C)C(C#N)=C(C)N1 [BAY-974] | 84 | 14.4 | 97 | 100 | 100 | 91 | 95 | > 20 µM (not active) | 91 | 84 | 100 | 10.2 | 96 | 100 | 66 | 100 | 85 | 1.96
2 | CCc1ccccc1C(=O)Nc1n[nH]c2c(C)c(F)c(C3C(C#N)=C(C)N(C)C(C)=C3C#N)cc12 [BAY-3827] | 100 | 5.01 | 86 | 25 | 100 | 100 | 33 | 0.0014 µM (active) | 54 | 100 | 83 | 10 | 88 | 90 | 82 | 100 | 55 | 6.85

Source: ChEMBL document CHEMBL4507319 (2021)
